11 compounds from patent US20210251232A1, “USE OF FUNGICIDAL ACTIVE COMPOUND I DERIVATIVE AND MIXTURES THEREOF IN SEED APPLICATION AND TREATMENT METHODS” (BASF SE, priority 2018, published 2021) can be followed below.

Like-named read-outs stand apart in the source and are kept apart here.

Holding throughout (type): cell-based
Holding throughout (conditions): alone, 7 days after inoculation

One test concerns Pyricularia oryzae.
For a further test, the system named is Phytophthora infestans.
The next test has as its system Botrytis cinerea. Put plainly: Microtiterplate test, activity against the grey mold Botrytis cinerea.
A further test concerns Leptosphaeria nodorum. Put plainly: Microtiter test, activity against wheat leaf spots caused by Leptosphaeria nodorum.
The subject of test [1] is Qol resistant iso-late of Pyrenophora teres. The experiment in a line: Microtiter test, activity against Pyrenophora teres.

In the case of `O=[N+]([O-])NC1=NCCN1Cc1ccc(Cl)nc1` [Imidacloprid], the Observed efficacy in the test on Pyricularia oryzae (63 ppm) amounted to 0.

As to `Cc1cc(C(F)(F)F)nn1CC(=O)N1CCC(c2nc(C3=NOC(c4c(F)cccc4F)C3)cs2)CC1` (stereo not shown) [Oxathiapirolin], the Observed efficacy with Pyricularia oryzae (16 ppm) worked out at 0.

In the test on Pyricularia oryzae (4 ppm), `COC(=O)NC(=S)Nc1ccccc1NC(=S)NC(=O)OC` [Thiophanate methyl] came in with an Observed efficacy of 0.

`CC(C)C1CCC(Cc2ccc(Cl)cc2)C1(O)Cn1cncn1` (stereo not shown) [Ipconazol]: the Observed efficacy with Pyricularia oryzae (16 ppm) amounted to 0.

Compound Spinetoram displayed an Observed efficacy in the test on Pyricularia oryzae (63 ppm) of 0.

On to `N#Cc1ccc(Oc2ccc(C(F)(F)C(O)(Cn3ncnc3S)c3ccc(F)cc3F)nc2)cc1` (stereo not shown) [Compound I, 4-[[6-[2-(2,4-difluorophenyl)-1,1-difluoro-2-hydroxy-3-(5-sulfanyl-1,2,4-triazol-1-yl)propyl]-3-pyridyl]oxy]benzonitrile], for which the Observed efficacy in the test with Phytophthora infestans (4 ppm, 405 nm, 0 = growth as untreated control, 100 = no growth) is listed as 24; in the test with Botrytis cinerea (4 ppm, 405 nm) it was 24; in the test with Leptosphaeria nodorum (0.25 ppm), 0; in the test with Leptosphaeria nodorum (1 ppm), 20; with Leptosphaeria nodorum (4 ppm, 405 nm) it was 37; with Pyricularia oryzae (1 ppm, 405 nm), 0. Further, the Observed efficacy in test [1] (4 ppm, 405 nm) came to 0.

For `N#Cc1c[nH]cc1-c1cccc2c1OC(F)(F)O2` [Fludioxonil], the Observed efficacy in the test with Pyricularia oryzae (0.016 ppm) came out at 9; in the test with Pyricularia oryzae (0.063 ppm), 17; with Pyricularia oryzae (0.25 ppm), 26.

Turning to `CC(O)(Cn1cncn1)c1ccc(Oc2ccc(Cl)cc2)cc1C(F)(F)F` (stereo not shown) [Mefentrifluconazol], the Observed efficacy in the test on Phytophthora infestans (0.016 ppm) came out at 0; with Botrytis cinerea (0.016 ppm), 0; in the test on Leptosphaeria nodorum (0.016 ppm) it was 39; in test [1] (0.25 ppm) it was 31.

On to `CC(c1ccc(C(F)(F)F)nc1)S(C)(=O)=NC#N` (stereo not shown) [Sulfoxaflor], for which, in the test on Pyricularia oryzae (63 ppm), the Observed efficacy turned out to be 0.

Consider `CN/C(=N\[N+](=O)[O-])NCc1cnc(Cl)s1` [Clothianidin], for which the Observed efficacy in the test on Pyricularia oryzae (63 ppm) came out at 0.

For `COC(=O)N(OC)c1ccccc1COc1ccn(-c2ccc(Cl)cc2)n1` [Pyraclostrobin], the Observed efficacy in the test with Leptosphaeria nodorum (0.016 ppm) stood at 42.
